{"source": "paper PMC3947168", "about": "(Molecular cancer therapeutics, 2013)", "key": {"c-MET [1]": {"target": "T1, c-MET (Homo sapiens, UniProt P08581)", "T1 sequence (P08581 25-1390)": "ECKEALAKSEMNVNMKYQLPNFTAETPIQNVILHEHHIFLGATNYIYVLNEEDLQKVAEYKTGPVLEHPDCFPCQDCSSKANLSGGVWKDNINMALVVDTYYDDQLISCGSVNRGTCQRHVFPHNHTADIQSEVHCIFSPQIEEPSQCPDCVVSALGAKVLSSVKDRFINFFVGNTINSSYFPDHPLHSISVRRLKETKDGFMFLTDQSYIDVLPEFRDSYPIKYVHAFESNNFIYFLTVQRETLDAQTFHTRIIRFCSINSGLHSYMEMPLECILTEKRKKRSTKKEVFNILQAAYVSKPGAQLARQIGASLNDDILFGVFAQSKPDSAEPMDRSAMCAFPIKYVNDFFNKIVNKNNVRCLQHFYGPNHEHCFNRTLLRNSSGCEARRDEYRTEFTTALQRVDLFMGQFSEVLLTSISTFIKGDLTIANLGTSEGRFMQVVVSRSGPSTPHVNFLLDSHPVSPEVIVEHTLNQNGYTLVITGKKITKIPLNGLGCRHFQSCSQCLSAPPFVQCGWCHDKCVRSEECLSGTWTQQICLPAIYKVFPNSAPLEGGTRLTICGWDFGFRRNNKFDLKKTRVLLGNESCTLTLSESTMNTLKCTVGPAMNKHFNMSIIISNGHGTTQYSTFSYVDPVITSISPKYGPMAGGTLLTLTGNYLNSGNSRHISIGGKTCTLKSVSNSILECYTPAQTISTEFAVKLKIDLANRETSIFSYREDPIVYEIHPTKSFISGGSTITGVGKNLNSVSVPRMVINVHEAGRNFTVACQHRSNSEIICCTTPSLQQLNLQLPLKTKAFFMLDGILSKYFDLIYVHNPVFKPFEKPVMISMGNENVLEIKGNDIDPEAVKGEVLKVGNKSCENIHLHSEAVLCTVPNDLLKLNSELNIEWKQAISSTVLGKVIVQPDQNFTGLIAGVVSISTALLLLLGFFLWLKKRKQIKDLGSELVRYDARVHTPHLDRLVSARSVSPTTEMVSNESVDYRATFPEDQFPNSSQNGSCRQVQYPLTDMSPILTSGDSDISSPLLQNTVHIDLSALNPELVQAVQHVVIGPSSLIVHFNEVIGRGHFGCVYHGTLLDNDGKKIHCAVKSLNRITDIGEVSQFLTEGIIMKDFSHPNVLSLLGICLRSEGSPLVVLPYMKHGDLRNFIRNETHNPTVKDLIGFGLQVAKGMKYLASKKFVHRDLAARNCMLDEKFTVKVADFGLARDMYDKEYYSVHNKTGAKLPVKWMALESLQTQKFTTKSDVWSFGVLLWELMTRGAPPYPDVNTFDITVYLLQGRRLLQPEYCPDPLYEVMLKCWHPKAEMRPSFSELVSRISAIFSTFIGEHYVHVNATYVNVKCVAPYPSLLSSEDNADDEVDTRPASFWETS", "experiment": "HGF induced c-MET phosphorylation", "type": "cell-based"}, "SW1736 cells [2]": {"system": "SW1736 cells", "experiment": "Cell cycle analysis", "type": "cell-based, human", "details": "24 hour, diluent control 9%"}, "c-MET [3]": {"target": "T1, c-MET", "details": "read-out: p-MET inhibition (IC50); HT-29; Report; cited from earlier work"}, "HT29 cells": {"system": "HT29 cells", "experiment": "MTT cellular proliferation assay, HT29", "type": "cell-based", "details": "Homo sapiens, HT-29, 72 h, read-out: Growth inhibition (IC50)"}, "TL3 cells [4]": {"system": "TL3 cells", "experiment": "MTT cellular proliferation assay, TL3", "type": "cell-based", "details": "Homo sapiens; for IC50: 72 h, read-out: Growth inhibition (IC50)"}, "c-MET [5]": {"target": "T1, c-MET", "experiment": "HGF induced c-MET phosphorylation", "type": "cell-based", "remark": "listed apart in the source"}, "c-MET [6]": {"target": "T1, c-MET", "details": "read-out: p-MET inhibition (IC50); MDA-MB-231; Report; cited from earlier work"}, "T2 cells [7]": {"system": "T2 cells", "experiment": "Cell cycle analysis", "type": "cell-based, human", "details": "24 hour, control 3%"}, "[8]": {"system": "thyroid cancer cell lines (SW1736, T2, TL3, BHP2-7)", "experiment": "MTT cellular proliferation assay, responsive thyroid cancer cell lines", "type": "cell-based", "details": "Homo sapiens, SW-1736, 72 h, read-out: IC50 of proliferation"}, "TL3 cells [9]": {"system": "TL3 cells", "experiment": "Apoptosis assay", "type": "cell-based, human", "details": "10 μM, 24 hours, diluent control 10%"}, "TL3 cells [10]": {"system": "TL3 cells", "experiment": "Cell cycle analysis", "type": "cell-based, human", "details": "24 hour, control 2%"}, "c-MET [11]": {"target": "c-MET", "details": "read-out: Ki value, c-MET; biochemical analysis; cited from earlier work"}, "c-MET [12]": {"target": "T1, c-MET", "experiment": "HGF induced c-MET phosphorylation", "type": "cell-based", "remark": "listed apart in the source"}, "c-MET [13]": {"target": "T1, c-MET", "experiment": "HGF induced c-MET phosphorylation", "type": "cell-based", "remark": "listed apart in the source"}, "[14]": {"system": "p-AKT, p-STAT3, p-ERK, p-4E-BP1", "experiment": "c-MET downstream signaling", "type": "cell-based, human", "details": "SW1736 and TL3; for levels of p-STAT3 and p-AKT / phosphorylation of ERK and 4E-BP1: 0.1, 1.0, and 10 μM"}, "MDA-MB-231 cells": {"system": "MDA-MB-231 cells", "experiment": "MTT cellular proliferation assay, MDA-MB-231", "type": "cell-based", "details": "Homo sapiens, MDA-MB-231, 72 h, read-out: Growth inhibition (IC50)"}, "T2 cells [15]": {"system": "T2 cells", "experiment": "Apoptosis assay", "type": "cell-based, human", "details": "10 μM, 24 hours, diluent control 11%"}, "SW1736 cells [16]": {"system": "SW1736 cells", "experiment": "Apoptosis assay", "type": "cell-based, human", "details": "10 μM, 24 hours, diluent control 10%"}, "[17]": {"system": "PTC cell lines (BHP, B-CPAP and TPC-1)", "details": "cited from earlier work"}, "c-MET [18]": {"target": "T1, c-MET", "details": "10μM; SW1736 and TL3; HGF 20 ng/ml, 10 minutes"}, "[19]": {"system": "SW1736 human anaplastic thyroid tumor xenografts", "experiment": "Murine xenograft model", "type": "in vivo, nu/nu athymic mice"}, "SW1736 cells [20]": {"system": "SW1736 cells", "experiment": "MTT cellular proliferation assay, SW1736", "type": "cell-based", "details": "Homo sapiens, SW-1736, read-out: inhibition of cell growth"}}, "note": "Like-named read-outs stand apart in the source and are kept apart here."}
{"smiles": "O=C1NC(=O)[C@@H](c2cn3c4c(cccc24)CCC3)[C@@H]1c1c[nH]c2ccccc12", "note": "[Tivantinib]", "values": [{"measurement": "IC50", "setting": "c-MET [1]", "result": "~1000", "unit": "nM"}, {"measurement": "mean G2/M arrest (cells in G2/M)", "setting": "SW1736 cells [2]; 1 μM", "result": 57, "unit": "%"}, {"measurement": "IC50", "setting": "c-MET [3]", "result": "100 to 300", "unit": "nM"}, {"measurement": "IC50", "setting": "HT29 cells", "result": 540, "unit": "nM"}, {"measurement": "IC50", "setting": "TL3 cells [4]", "result": 330, "unit": "nM"}, {"measurement": "IC50", "setting": "c-MET [5]", "result": "> 1000", "unit": "nM"}, {"measurement": "IC50", "setting": "c-MET [6]", "result": "100 to 300", "unit": "nM"}, {"measurement": "cells in G2/M", "setting": "T2 cells [7]; 1 μM", "result": 45, "unit": "%"}, {"measurement": "IC50", "setting": "[8]", "result": "100 to 1000", "unit": "nM"}, {"measurement": "apoptosis (% Annexin V positive cells)", "setting": "TL3 cells [9]", "result": 20, "unit": "%"}, {"measurement": "cells in G2/M", "setting": "TL3 cells [10]; 1 μM", "result": 23, "unit": "%"}, {"measurement": "Ki", "setting": "c-MET [11]", "result": 355, "unit": "nM"}, {"measurement": "IC50", "setting": "c-MET [12]", "result": "> 1000", "unit": "nM"}, {"measurement": "IC50", "setting": "c-MET [13]", "result": "~1000", "unit": "nM"}, {"measurement": "levels of p-STAT3 and p-AKT", "setting": "[14]", "result": "potently decreased"}, {"measurement": "phosphorylation of ERK and 4E-BP1", "setting": "[14]", "result": "not significantly altered"}, {"measurement": "IC50", "setting": "MDA-MB-231 cells", "result": 650, "unit": "nM"}, {"measurement": "apoptosis (% Annexin V positive cells)", "setting": "T2 cells [15]", "result": 21, "unit": "%"}, {"measurement": "apoptosis (% Annexin V positive cells)", "setting": "SW1736 cells [16]", "result": 14, "unit": "%"}]}
{"smiles": "Cc1[nH]c(/C=C2\\C(=O)Nc3ccc(S(=O)(=O)Cc4c(Cl)cccc4Cl)cc32)c(C)c1C(=O)N1CCC[C@@H]1CN1CCCC1", "note": "[PHA665752]", "values": [{"measurement": "in vitro growth of PTC cell lines", "setting": "[17]", "result": "growth inhibited"}]}
{"smiles": "Cc1[nH]c(/C=C2\\C(=O)Nc3ccc(S(=O)(=O)N(C)c4cccc(Cl)c4)cc32)c(C)c1C(=O)N1CCN(C)CC1", "note": "[SU11274]", "values": [{"measurement": "effect on p-MET", "setting": "c-MET [18]", "result": "inhibited"}, {"measurement": "effect on p-AKT, p-STAT3", "setting": "[14]; 10μM", "result": "inhibited"}]}
{"smiles": "C[C@@H](Oc1cc(-c2cnn(C3CCNCC3)c2)cnc1N)c1c(Cl)ccc(F)c1Cl", "note": "[Crizotinib]", "values": [{"measurement": "mean G2/M arrest (cells in G2/M)", "setting": "SW1736 cells [2]; 10 μM", "result": 74, "unit": "%"}, {"measurement": "decrease of mean tumor volume compared to vehicle group", "setting": "[19]; 50 mg/kg daily oral gavage, day 50", "result": 55.8, "unit": "%"}, {"measurement": "Ki67 positivity in tumor tissue compared to vehicle", "setting": "[19]; 50 mg/kg, day 50, immunohistochemistry", "result": "less"}, {"measurement": "c-MET phosphorylation in tumor tissue compared to vehicle", "setting": "[19]; 50 mg/kg, tumors dissected 4 hours after drug administration at day 50, western blotting", "result": "less"}, {"measurement": "IC50", "setting": "HT29 cells", "result": 2600, "unit": "nM"}, {"measurement": "IC50", "setting": "TL3 cells [4]", "result": 2600, "unit": "nM"}, {"measurement": "inhibition at 0.1 µM", "setting": "TL3 cells [4]; read-out: inhibition of cell growth", "result": "< 20", "unit": "%"}, {"measurement": "cells in G2/M", "setting": "T2 cells [7]; 10 μM", "result": 26, "unit": "%"}, {"measurement": "IC50", "setting": "[8]", "result": "2000 to 3500", "unit": "nM"}, {"measurement": "apoptosis (% Annexin V positive cells)", "setting": "TL3 cells [9]", "result": 27, "unit": "%"}, {"measurement": "cells in G2/M", "setting": "TL3 cells [10]; 10 μM", "result": 48, "unit": "%"}, {"measurement": "inhibition at 1 µM", "setting": "SW1736 cells [20]", "result": "< 50", "unit": "%"}, {"measurement": "levels of p-STAT3 and p-AKT", "setting": "[14]", "result": "potently decreased"}, {"measurement": "phosphorylation of ERK and 4E-BP1", "setting": "[14]", "result": "not significantly altered"}, {"measurement": "IC50", "setting": "MDA-MB-231 cells", "result": 2800, "unit": "nM"}, {"measurement": "apoptosis (% Annexin V positive cells)", "setting": "T2 cells [15]", "result": 19, "unit": "%"}, {"measurement": "apoptosis (% Annexin V positive cells)", "setting": "SW1736 cells [16]", "result": 15, "unit": "%"}]}
